According to patent US20250152535A1, “COMPOSITION FOR PREVENTING OR IMPROVING HEPATIC DYSFUNCTION” (KYOWA HAKKO BIO CO., LTD., priority 2022, published 2025):

Experiments:
[1] = tested on: ICR mice; assay: Carbon tetrachloride (CCl4)-induced hepatic dysfunction model in mice, blood plasma AST and ALT levels; format: in vivo; details: male ICR mice; 400 mg/kg/day once-daily oral for three days, then CCl4 0.04 mL/kg i.p.; blood 16 hours after CCl4; compared with group 2 (vehicle+CCl4)
Description: GSSSG dihydrate prepared by the method described in Patent Literature 1 was crushed in a mortar. To 10 mL of distilled water, the crushed GSSSG dihydrate (200 mg in terms of anhydride) was added and suspended. Then, twice as much sodium hydrogen carbonate as the GSSSG anhydride was added thereto on a molar basis, and the resultant mixture was mixed for 10 minutes. The obtained GSSSG solution was further diluted with distilled water to obtain administration samples 3 and 4. In addition, reduced glutathione (GSH) or oxidized glutathione (GSSG), manufactured by KYOWA HAKKO BIO Co., Ltd., was dissolved in distilled water to obtain each of administration samples 1 and 2.
Four-week-old male ICR mice (Charles River Laboratories Japan, Inc.) were acclimated for 1 week and then subjected to a test at 5 weeks of age. During the test period, the mice were allowed to freely drink water regarding water, allowed to freely ingest a solid feed CE-2 (CLEA Japan, Inc.), and kept at a temperature of 20° C. to 24° C., a humidity of 50% to 60%, and for 12 hours of light-dark cycle. Thereafter, the mice were divided into groups 1 to 6 so that each group included 3 or 4 mice. • Group 1: Normal (vehicle-no symptoms induced) • Group 2: Vehicle+CCl4 • Group 3: GSH 400 mg/kg/day (administration sample 1)+CCl4 • Group 4: GSSG 400 mg/kg/day (administration sample 2)+CCl4 • Group 5: GSSSG 100 mg/kg/day (administration sample 3)+CCl4
Group 6: GSSSG 400 mg/kg/day (administration sample 4)+CCl4
After the group dividing, the vehicle, the administration sample 1, the administration sample 2, the administration sample 3, or the administration sample 4 was subjected to an once-daily forced oral administration at the above-described dose for a total of three consecutive days. After 30 minutes from the final oral administration, CCl4 (0.04 mL/kg) suspended in olive oil was intraperitoneally administered to induce hepatic dysfunction.

[2] = tested on: HepG2 cells; assay: Protective effect against hepatocellular damage by hydrogen peroxide in HepG2 cells, cell survival rate by MTT assay; format: cell-based, human; details: for Cell survival rate (%): then 0.1 mM hydrogen peroxide for 2 hours, control group = 100; for cell survival rate as compared with the solvent addition group: sample added before 0.1 mM hydrogen peroxide
Description: A human hepatoma-derived cell line (HepG2: HB-8065™, Lot number: 70029112) was obtained from American Type Culture Collection, and Dulbecco's Modified Eagle Medium containing 10% FBS (Thermo Fisher Scientific, Inc.) was used as a basal medium. Cells were cultured in an incubator of 37° C. and 5% CO2, and the cells that had been passaged to 16 to 25 generations were subjected to experimentation. The used GSSG and GSSSG were those manufactured by KYOWA HAKKO BIO Co., Ltd.
0.15 mL of a cell suspension obtained by adjusting the initial cell concentration to 2×10^4 cells/mL was seeded in a 96-well plate (Thermo Fisher Scientific, Inc.).
After the culturing for 4 hours from the seeding, GSSSG (for the addition group of the final concentration of 0.05 mM and the addition group of the final concentration of 0.1 mM) was added to the culture medium. In addition, apart from this, a group in which only the solvent of GSSSG (PBS in which sodium hydrogen carbonate was dissolved so that the concentration thereof was 15.8 mM) was added was defined as a solvent addition group. After the culturing for 20 hours from the sample addition, the culture medium was replaced with a culture medium (not containing GSSSG) obtained by adding hydrogen peroxide solution (FUJIFILM Wako Pure Chemical Corporation) to the above-described sample addition group and the solvent addition group so that the final concentration thereof was 0.1 mM, and then hepatocellular damage was induced. The control group was the group in which the same amount of PBS was added to the solvent addition group instead of hydrogen peroxide solution. After the culturing for 2 hours from the addition of hydrogen peroxide solution or PBS, the cell survival rate was measured according to the MTT assay, and the degree of hepatocellular damage was evaluated. For GSSG as well, an experiment was carried out in the same manner as in the GSSSG, except that PBS was used as a solvent.

Molecule: N[C@@H](CCC(=O)N[C@@H](CS)C(=O)NCC(=O)O)C(=O)O [GSH, reduced glutathione]
- blood plasma ALT level [1]: significant suppression
- blood plasma AST level [1]: significant suppression

Molecule: N[C@@H](CCC(=O)N[C@@H](CSSSC[C@H](NC(=O)CC[C@H](N)C(=O)O)C(=O)NCC(=O)O)C(=O)NCC(=O)O)C(=O)O [GSSSG, glutathione trisulfide]
- blood plasma ALT level [1]: tendency of the suppression
- blood plasma AST level [1]: tendency of the suppression
- Cell survival rate (%) ([2]; sample 0.05 mM for 20 hours): 36.9%
- Cell survival rate (%) ([2]; sample 0.1 mM for 20 hours): 49.7%
- cell survival rate as compared with the solvent addition group [2]: improved survival rate

Molecule: oxidized glutathione [GSSG]
- blood plasma ALT level [1]: significant suppression
- blood plasma AST level [1]: significant suppression
- Cell survival rate (%) ([2]; sample 0.05 mM for 20 hours): 39.4%
- Cell survival rate (%) ([2]; sample 0.1 mM for 20 hours): 38.4%
- cell survival rate as compared with the solvent addition group [2]: significantly decreased
